Target: T1, acetylcholinesterase (Homo sapiens, UniProt P22303)
T1 sequence (P22303 32-614): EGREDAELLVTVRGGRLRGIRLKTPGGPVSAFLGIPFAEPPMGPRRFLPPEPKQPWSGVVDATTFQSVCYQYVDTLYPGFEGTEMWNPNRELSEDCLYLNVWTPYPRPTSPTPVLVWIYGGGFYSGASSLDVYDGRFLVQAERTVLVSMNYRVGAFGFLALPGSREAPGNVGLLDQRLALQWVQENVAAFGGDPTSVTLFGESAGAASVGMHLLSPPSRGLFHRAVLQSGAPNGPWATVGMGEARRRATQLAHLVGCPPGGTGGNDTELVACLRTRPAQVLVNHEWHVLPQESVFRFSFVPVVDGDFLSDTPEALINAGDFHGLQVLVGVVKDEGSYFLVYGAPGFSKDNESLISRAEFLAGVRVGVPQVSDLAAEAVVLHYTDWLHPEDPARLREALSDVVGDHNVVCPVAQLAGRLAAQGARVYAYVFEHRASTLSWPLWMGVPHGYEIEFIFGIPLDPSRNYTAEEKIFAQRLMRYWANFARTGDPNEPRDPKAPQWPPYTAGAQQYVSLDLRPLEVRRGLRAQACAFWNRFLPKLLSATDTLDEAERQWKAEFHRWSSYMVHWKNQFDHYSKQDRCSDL
Test: Acetylcholinesterase inhibition, photometric method of Ellman
Type: biochemical
Details: pI is a logarithmic measure of capacity to prevent the action of acetylcholinesterase, read-out: Cholinesterase inhibition pI (converted)
`Nc1c2c(nc3ccccc13)C(O)C(O)C(O)C2O` (stereo not drawn) [9-amino-1,2,3,4-tetrahydroacridin 1,2,3,4-tetraol] showed an IC50 of 0.158 µM. `Nc1c2c(nc3ccccc13)CCC(O)C2O` (stereo not drawn) [9-amino-1,2,3,4-tetrahydroacridin-1,2-diol] showed an IC50 of 1.26 µM. `Nc1c2c(nc3ccccc13)C(O)C(O)C(O)C2` (stereo not drawn) [9-amino-1,2,3,4-tetrahydroacridin-2,3,4-triol] showed an IC50 of 0.126 µM. With `Nc1c2c(nc3ccccc13)C(O)C(O)CC2` (stereo not drawn) [9-amino-1,2,3,4-tetrahydroacridin-3,4-diol] the IC50 was 0.2 µM. For `Nc1c2c(nc3ccccc13)C(=O)CC(O)C2O` (stereo not drawn) [9-amino-1,2-dihydroacridin-1,2-diol 4(3H)-one], the IC50 was 0.501 µM. `Nc1c2c(nc3ccccc13)C=CC(O)C2O` (stereo not drawn) [9-amino-1,2-dihydroacridin-1,2-diol] gave an IC50 of 0.631 µM. `Nc1c2ccccc2nc2c(O)ccc(O)c12` [9-amino-1,4-dihydroxyacridine] gave an IC50 of 0.316 µM. `Nc1c2ccccc2nc2c(O)cc(O)cc12` [9-amino-2,4-dihydroxyacridine] gave an IC50 of 0.158 µM.

Target: T1, acetylcholinesterase
Test: not given
Details: figure obtained from the study by P. N. Kaul (J. Pharm. Pharmacol. 1962); cited from earlier work
For `Nc1ccnc2ccccc12` [4-aminoquinoline], the “Cholinesterase inhibition pI” value is listed as 4.3.

From patent publication US5767126A, “Alzheimer's disease treatment with tacrine metabolites” (priority 1991, dated 1998)
